≈ marks a conversion by molar mass, not a printed value. Calls of active or inactive are those of the source. No cut-off for these calls is given here.
Assays:
[1] = target: Collagenase ColA (Bacillus cereus) (UniProt Q81BJ6); assay: Reversible inhibition of Bacillus cereus collagenase unit ColA at 4.375 uM using quenched fluorescent FSI-1 as substrate incubated for 2 min by rapid dilution assay
[2] = target: T1, Collagenase ColH (Hathewaya histolytica) (UniProt Q46085); assay: Reversible inhibition of Clostridium histolyticum peptidase domain of ColH at 1.25 uM using quenched fluorescent FSI-1 as substrate incubated for 2 min by rapid dilution assay
T1 sequence (whole entry): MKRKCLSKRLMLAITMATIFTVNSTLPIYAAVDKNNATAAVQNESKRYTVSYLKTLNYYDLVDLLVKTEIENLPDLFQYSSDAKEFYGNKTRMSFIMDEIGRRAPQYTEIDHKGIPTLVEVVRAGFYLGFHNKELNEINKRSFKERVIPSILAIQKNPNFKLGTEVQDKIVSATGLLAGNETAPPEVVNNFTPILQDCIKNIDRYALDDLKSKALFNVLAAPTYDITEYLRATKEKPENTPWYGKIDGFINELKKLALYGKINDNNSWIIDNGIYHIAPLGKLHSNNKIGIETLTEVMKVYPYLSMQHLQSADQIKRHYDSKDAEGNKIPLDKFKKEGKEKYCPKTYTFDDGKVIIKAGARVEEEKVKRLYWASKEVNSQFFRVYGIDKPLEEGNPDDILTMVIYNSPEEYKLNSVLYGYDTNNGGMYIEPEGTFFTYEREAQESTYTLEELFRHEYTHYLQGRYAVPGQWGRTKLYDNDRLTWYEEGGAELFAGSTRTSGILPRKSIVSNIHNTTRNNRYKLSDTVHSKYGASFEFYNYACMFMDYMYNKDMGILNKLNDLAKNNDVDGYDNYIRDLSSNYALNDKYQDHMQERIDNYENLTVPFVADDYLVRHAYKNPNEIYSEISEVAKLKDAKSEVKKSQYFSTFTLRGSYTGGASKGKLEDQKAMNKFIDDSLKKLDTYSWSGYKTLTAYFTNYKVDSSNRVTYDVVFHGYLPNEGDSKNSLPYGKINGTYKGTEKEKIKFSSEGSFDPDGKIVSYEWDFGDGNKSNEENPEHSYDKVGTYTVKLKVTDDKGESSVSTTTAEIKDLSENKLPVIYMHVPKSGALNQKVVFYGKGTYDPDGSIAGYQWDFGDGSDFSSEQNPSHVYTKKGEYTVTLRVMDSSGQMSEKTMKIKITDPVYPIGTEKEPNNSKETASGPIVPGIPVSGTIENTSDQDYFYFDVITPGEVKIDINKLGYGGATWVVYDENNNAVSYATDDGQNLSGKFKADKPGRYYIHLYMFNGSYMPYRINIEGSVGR

[3] = target: T2, Collagenase ColG (Clostridium histolyticum) (UniProt Q9X721); assay: Reversible inhibition of Clostridium histolyticum collagenase unit of ColG at 7.5 uM using quenched fluorescent FSI-1 as substrate incubated for 2 min by rapid dilution assay; settings: Hathewaya histolytica
T2 sequence (whole entry): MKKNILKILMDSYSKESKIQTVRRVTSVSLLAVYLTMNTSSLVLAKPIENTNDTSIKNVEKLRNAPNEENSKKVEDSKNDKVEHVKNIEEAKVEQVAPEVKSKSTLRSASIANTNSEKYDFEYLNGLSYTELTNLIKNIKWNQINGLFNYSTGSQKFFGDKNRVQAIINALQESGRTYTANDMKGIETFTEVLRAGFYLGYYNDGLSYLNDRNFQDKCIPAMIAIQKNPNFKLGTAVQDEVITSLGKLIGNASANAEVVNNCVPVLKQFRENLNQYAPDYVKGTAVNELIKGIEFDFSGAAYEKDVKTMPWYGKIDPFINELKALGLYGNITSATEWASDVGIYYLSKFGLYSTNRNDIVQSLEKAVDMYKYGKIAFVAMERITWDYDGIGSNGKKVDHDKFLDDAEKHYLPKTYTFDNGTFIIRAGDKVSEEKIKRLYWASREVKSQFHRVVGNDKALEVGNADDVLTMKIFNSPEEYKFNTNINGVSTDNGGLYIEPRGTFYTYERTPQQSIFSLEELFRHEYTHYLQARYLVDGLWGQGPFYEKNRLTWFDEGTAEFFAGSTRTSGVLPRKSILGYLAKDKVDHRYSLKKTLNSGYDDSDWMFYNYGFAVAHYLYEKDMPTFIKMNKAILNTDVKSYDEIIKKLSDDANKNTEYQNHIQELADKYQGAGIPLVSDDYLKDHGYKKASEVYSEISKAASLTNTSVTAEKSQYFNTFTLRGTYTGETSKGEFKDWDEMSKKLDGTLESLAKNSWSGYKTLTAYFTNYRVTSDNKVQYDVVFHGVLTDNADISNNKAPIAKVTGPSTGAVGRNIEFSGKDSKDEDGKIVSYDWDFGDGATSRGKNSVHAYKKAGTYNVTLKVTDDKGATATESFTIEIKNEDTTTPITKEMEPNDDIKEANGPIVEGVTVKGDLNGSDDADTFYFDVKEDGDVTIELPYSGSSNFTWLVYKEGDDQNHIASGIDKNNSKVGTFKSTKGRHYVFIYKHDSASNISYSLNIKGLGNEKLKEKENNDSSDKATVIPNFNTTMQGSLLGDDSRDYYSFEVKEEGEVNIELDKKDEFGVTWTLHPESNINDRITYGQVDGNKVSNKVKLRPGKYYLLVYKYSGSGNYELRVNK

Collagenase ColH [4] = target: T3, Collagenase ColH (Hathewaya histolytica, UniProt Q46085); assay: Inhibition of Clostridium histolyticum CoLH assessed as inhibition constant using M MOCAcPro-Leu-Gly-Leu-A2pr-(DNP)Ala-Arg-NH2 as substrate incubated for 10 mins by fluorescence spectrophotometer analysis
T3 sequence (Q46085 whole entry): T1 sequence (whole entry)

NHDF [5] = assay: Inhibition of Bacillus cereus collagenase infected in NHDF cells assessed as suppression of gelatin lysis incubated for 1 to 6 hrs by coomassie brilliant blue staining based zymography analysis; type: cell-based; settings: dose 12.5-100 µM, time 1-6 hrs
NHDF [6] = assay: Inhibition of Bacillus cereus collagenase infected in NHDF cells assessed as protection of spindle shape morphology at > 100 uM incubated for 1 to 6 hrs by coomassie brilliant blue staining based SDS-PAGE analysis; type: cell-based; settings: time 1-6 hrs
[7] = target: Collagenase ColA (Bacillus cereus) (UniProt Q81BJ6); assay: Irreversible inhibition of Bacillus cereus collagenase unit ColA at 0.125 uM using quenched fluorescent FSI-1 as substrate incubated for 2 min by rapid dilution assay
NHDF [8] = assay: Inhibition of Bacillus cereus collagenase infected in NHDF cells assessed as fibrillar extra cellular matrix at > 100 uM incubated for 1 to 6 hrs by coomassie brilliant blue staining based SDS-PAGE analysis; type: cell-based; settings: time 1-6 hrs
HepG2 = assay: Cytotoxicity against human HepG2 cells assessed as reduction in cell viability; type: functional, cell-based
NHDF [9] = assay: Inhibition of Bacillus cereus collagenase infected in NHDF cells assessed as reduction in LDH release at > 100 uM incubated for 30 mins by LDH assay; type: cell-based
Bacillus cereus [10] = assay: In vivo inhibition of Bacillus cereus AH187 ColQ1 infected in Galleria mellonella larvae assessed as increase in survival rate at 100 uM incubated for 3 days; type: functional; settings: AH187, 72 h, time 3 day
NHDF [11] = assay: Inhibition of Bacillus cereus collagenase infected in NHDF cells assessed as suppression of gelatin lysis at 200 uM incubated for 1 to 6 hrs by coomassie brilliant blue staining based zymography analysis; type: cell-based; settings: time 1-6 hrs
NHDF [12] = assay: Inhibition of Bacillus cereus collagenase infected in NHDF cells assessed as prevention of cell detachment at 25 to 100 uM incubated for 1 to 6 hrs by coomassie brilliant blue staining based SDS-PAGE analysis; settings: dose 25-100 µM, time 1-6 hrs
NHDF [13] = assay: Inhibition of Bacillus cereus collagenase infected in NHDF cells assessed as suppression of gelatin lysis at 100 uM incubated for 1 to 6 hrs by coomassie brilliant blue staining based zymography analysis; type: cell-based; settings: time 1-6 hrs
NHDF [14] = assay: Inhibition of Bacillus cereus collagenase infected in NHDF cells assessed as reduction in cell viability at 25 to 100 uM; type: cell-based; settings: dose 25-100 µM
[15] = target: Collagenase ColQ1 (Bacillus cereus) (UniProt B9J3S4); settings: dose 100.0 µM, time 144.0 sec
Sequence of Collagenase ColQ1 (Bacillus cereus) (B9J3S4 whole entry): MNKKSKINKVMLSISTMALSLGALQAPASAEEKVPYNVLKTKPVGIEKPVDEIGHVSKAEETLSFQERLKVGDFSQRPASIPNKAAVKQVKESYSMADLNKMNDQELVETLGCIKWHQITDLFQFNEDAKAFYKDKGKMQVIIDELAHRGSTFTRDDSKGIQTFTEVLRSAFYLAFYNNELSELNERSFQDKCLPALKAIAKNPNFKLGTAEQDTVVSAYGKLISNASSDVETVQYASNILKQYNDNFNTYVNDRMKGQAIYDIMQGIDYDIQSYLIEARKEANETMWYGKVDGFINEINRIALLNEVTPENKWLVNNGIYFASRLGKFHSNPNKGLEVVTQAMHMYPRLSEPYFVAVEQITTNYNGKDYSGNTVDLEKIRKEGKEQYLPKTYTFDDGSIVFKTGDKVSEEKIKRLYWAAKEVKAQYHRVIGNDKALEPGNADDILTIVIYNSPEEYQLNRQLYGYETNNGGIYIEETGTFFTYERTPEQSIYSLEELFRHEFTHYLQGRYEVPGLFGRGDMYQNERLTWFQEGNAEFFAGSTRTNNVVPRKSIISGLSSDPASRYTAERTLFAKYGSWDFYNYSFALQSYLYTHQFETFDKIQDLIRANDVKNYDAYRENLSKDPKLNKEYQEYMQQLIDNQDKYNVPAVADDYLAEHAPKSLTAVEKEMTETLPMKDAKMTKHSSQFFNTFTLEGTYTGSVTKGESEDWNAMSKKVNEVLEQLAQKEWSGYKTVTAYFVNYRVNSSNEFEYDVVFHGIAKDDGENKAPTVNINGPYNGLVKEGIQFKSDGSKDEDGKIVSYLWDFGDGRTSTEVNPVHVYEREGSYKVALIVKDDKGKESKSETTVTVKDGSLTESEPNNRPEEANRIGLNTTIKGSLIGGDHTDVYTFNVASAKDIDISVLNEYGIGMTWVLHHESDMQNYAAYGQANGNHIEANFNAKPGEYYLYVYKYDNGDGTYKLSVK

Collagenase ColH [16] = target: T3, Collagenase ColH; assay: Inhibition of Clostridium histolyticum CoLH
NHDF [17] = assay: Inhibition of Bacillus cereus collagenase infected in NHDF cells assessed as reduction in cell viability at 100 uM; type: cell-based
NHDF [18] = assay: Inhibition of Bacillus cereus collagenase infected in NHDF cells assessed as prevention of cell detachment at 100 uM incubated for 1 to 6 hrs by coomassie brilliant blue staining based SDS-PAGE analysis; settings: time 1-6 hrs
[19] = Stability of compound in DMEM medium at 200 uM incubated for 2 hrs by LC-MS analysis; type: physicochemical
Collagenase ColH [20] = target: T3, Collagenase ColH; assay: Inhibition of Clostridium histolyticum CoLH using M MOCAcPro-Leu-Gly-Leu-A2pr-(DNP)Ala-Arg-NH2 as substrate incubated for 10 mins by fluorescence spectrophotometer analysis
Neutrophil collagenase = Neutrophil collagenase (Homo sapiens, UniProt P22894); assay: Inhibition of human MMP-8 assessed as inhibition constant using AcProLeuGly-S-LeuLeuGlyOEt as substrate by spectrophotometer analysis
Sequence of Neutrophil collagenase (P22894 whole entry): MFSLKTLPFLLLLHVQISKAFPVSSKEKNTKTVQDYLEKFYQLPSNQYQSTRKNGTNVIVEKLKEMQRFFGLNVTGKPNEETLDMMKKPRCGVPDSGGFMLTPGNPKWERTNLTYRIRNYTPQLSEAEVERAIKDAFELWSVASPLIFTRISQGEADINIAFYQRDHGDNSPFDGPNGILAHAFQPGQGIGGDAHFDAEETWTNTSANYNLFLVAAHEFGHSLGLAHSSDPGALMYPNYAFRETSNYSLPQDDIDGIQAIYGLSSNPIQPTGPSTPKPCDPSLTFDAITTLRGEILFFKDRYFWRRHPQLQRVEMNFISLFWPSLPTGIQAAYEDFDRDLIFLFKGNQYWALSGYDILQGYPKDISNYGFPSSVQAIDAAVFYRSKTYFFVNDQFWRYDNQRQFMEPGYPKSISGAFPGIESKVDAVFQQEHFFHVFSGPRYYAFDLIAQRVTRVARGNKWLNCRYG

[21] = target: 72 kDa type IV collagenase (Homo sapiens, UniProt P08253); assay: Inhibition of human MMP-2 assessed as inhibition constant using AcProLeuGly-S-LeuLeuGlyOEt as substrate by spectrophotometer analysis
Sequence of 72 kDa type IV collagenase (P08253 whole entry): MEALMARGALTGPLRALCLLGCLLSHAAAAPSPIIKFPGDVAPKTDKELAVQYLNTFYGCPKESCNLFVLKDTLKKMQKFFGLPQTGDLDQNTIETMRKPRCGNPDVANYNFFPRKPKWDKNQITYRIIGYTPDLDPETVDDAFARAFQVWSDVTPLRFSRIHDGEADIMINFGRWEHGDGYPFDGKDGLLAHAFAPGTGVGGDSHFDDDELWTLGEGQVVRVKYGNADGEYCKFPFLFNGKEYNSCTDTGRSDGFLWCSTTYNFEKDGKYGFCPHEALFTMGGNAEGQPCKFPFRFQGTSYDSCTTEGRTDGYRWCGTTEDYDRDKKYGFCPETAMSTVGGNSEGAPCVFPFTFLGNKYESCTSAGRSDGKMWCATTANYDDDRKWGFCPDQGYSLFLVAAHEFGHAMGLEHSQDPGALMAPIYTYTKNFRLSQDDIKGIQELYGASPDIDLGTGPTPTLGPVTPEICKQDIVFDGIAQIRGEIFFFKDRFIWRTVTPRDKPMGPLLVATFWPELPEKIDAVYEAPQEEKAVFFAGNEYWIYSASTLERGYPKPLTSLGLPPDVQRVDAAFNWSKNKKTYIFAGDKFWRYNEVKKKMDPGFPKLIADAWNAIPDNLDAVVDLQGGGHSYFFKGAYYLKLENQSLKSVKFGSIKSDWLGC

[22] = target: Collagenase ColQ1 (Bacillus cereus) (UniProt B9J3S4); assay: Inhibition of full length Bacillus cereus ColQ1 assessed as reduction in Col 1 cleavage at 1.5 to 12.5 uM incubated for 3 hrs by SDS-PAGE analysis; settings: dose 1.5-12.5 µM
NHDF [23] = assay: Inhibition of Bacillus cereus collagenase infected in NHDF cells assessed as reduction in LDH release at > 50 uM incubated for 30 mins by LDH assay; type: cell-based
NHDF [24] = assay: Inhibition of Bacillus cereus collagenase infected in NHDF cells assessed as prevention of cell detachment at 25 uM incubated for 1 to 6 hrs by coomassie brilliant blue staining based SDS-PAGE analysis; settings: time 1-6 hrs
Bacillus cereus [25] = assay: Antibacterial activity against Bacillus cereus AH187 assessed as minimal inhibitory concentration incubated for 48 hrs microplate reader analysis; type: functional
Bacillus cereus [26] = assay: In vivo inhibition of Bacillus cereus AH187 ColQ1 infected in Galleria mellonella larvae assessed as increase in survival rate at 200 uM incubated for 3 days; type: functional; settings: AH187, 72 h, time 3 day
NHDF [27] = assay: Inhibition of Bacillus cereus collagenase infected in NHDF cells assessed as protection of spindle shape morphology at > 50 uM incubated for 1 to 6 hrs by coomassie brilliant blue staining based SDS-PAGE analysis; type: cell-based; settings: time 1-6 hrs

Sequence of Collagenase ColA (Bacillus cereus) (Q81BJ6 whole entry, the tested form may be a part): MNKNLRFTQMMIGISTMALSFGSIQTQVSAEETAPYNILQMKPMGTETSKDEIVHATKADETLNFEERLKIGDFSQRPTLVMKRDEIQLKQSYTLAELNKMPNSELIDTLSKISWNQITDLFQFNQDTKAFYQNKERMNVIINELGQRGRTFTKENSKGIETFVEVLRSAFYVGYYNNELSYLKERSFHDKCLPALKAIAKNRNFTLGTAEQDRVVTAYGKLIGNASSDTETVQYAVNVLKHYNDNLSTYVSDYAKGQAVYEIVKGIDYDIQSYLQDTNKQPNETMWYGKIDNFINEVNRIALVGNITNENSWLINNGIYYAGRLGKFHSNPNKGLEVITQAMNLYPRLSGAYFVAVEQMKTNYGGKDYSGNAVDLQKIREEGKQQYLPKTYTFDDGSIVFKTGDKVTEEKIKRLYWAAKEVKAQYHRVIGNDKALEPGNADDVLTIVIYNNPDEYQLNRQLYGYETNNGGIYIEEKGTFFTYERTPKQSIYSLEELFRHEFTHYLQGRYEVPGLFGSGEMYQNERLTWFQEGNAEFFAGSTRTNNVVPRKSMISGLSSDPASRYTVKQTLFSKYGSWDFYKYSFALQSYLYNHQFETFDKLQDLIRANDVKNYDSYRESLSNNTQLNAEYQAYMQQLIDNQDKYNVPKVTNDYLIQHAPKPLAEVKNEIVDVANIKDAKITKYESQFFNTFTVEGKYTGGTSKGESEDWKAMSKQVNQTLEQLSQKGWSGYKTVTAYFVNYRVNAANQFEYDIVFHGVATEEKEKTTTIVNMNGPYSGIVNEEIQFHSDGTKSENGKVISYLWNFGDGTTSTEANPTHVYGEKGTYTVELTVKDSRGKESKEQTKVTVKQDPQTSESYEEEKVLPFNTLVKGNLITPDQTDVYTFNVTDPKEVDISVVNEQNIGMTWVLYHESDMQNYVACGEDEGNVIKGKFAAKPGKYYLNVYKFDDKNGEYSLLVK

## CC(=O)Nc1ccccc1OCc1cn(CCNC(=O)C(Cc2ccccc2)C(=O)NO)nn1 (centres undefined)
[1]
  inhibition: Active
[2]
  inhibition: Active
[3]
  inhibition: Active

## CC(NC(=O)C(Cc1ccccc1)NC(=O)NS(=O)(=O)c1ccc(F)cc1)C(=O)Nc1nnc(S)s1 (centres undefined)
Collagenase ColH [4]
  Ki: 200 nM

## O=P(O)(O)c1nc2ccc(-c3ccc(Cl)cc3)cc2nc1P(=O)(O)O
NHDF [5]
  inhibition: Active
NHDF [6]
  inhibition: Active
[7]
  inhibition: Active
[2]
  inhibition: Active
NHDF [8]
  inhibition: Active
HepG2
  IC50: > 100000 nM
NHDF [9]
  inhibition: Active
Bacillus cereus [10]
  inhibition in vivo at 100 µM: 35%
[3]
  inhibition: Active

## NCCCC(O)(P(=O)(O)O)P(=O)(O)O
NHDF [6]
  inhibition: Active
NHDF [8]
  inhibition: Active
NHDF [9]
  inhibition: Active
NHDF [11]
  inhibition: Active

## Cc1ccc2nc(P(=O)(O)O)c(P(=O)(O)O)nc2c1
NHDF [12]
  inhibition: Active
NHDF [13]
  inhibition: Active
NHDF [14]
  inhibition: Active

## CCOP(=O)(OCC)c1nc2ccc(OC)cc2nc1P(=O)(OCC)OCC
[15]
  inhibition: < 5%

## CC(=O)c1ccc(NC(=O)CSC(N)=O)cc1
Collagenase ColH [16]
  IC50: 10 nM

## O=P(O)(O)c1nc2ccc(Br)cc2nc1P(=O)(O)O
NHDF [13]
  inhibition: Active
NHDF [17]
  inhibition: Active
NHDF [18]
  inhibition: Active

## CC(=O)Nc1ccccc1OCc1cn(CCNC(=O)C(CC(C)C)C(=O)NO)nn1 (centres undefined)
[1]
  inhibition: Active
[2]
  inhibition: Active
HepG2
  IC50: > 100000 nM
[19]
  Stability: Stable
[3]
  inhibition: Active

## O=C(O)CN(CC1c2ccccc2C=Cc2ccccc21)C(=O)NS(=O)(=O)c1ccc(F)cc1
Collagenase ColH [20]
  IC50: 21 nM
Neutrophil collagenase
  Ki: 13 nM
[21]
  Ki: 9 nM

## COc1cc2ccc(=O)oc2cc1OC [SCOPARONE]
Collagenase ColH [20]
  IC50: 24 nM

## O=P(O)(O)c1nc2ccccc2nc1P(=O)(O)O
[22]
  inhibition: Active

## O=P(O)(O)C(Sc1ccc(Cl)cc1)P(=O)(O)O
NHDF [6]
  inhibition: Active
NHDF [8]
  inhibition: Active
NHDF [9]
  inhibition: Active

## O=P(O)(O)c1nc2cc(Cl)c(Cl)cc2nc1P(=O)(O)O
NHDF [23]
  inhibition: Active
[7]
  inhibition: Active
NHDF [24]
  inhibition: Active
Bacillus cereus [25]
  MIC50: 100 µM (≈ 35.9 µg/mL)
[2]
  inhibition: Active
Bacillus cereus [26]
  inhibition in vivo at 200 µM: 35%
NHDF [11]
  inhibition: Active
NHDF [27]
  inhibition: Active
[3]
  inhibition: Active

## O=C(Nc1ccc(Cl)c(Cl)c1)c1ccc2nc(P(=O)(O)O)c(P(=O)(O)O)nc2c1
NHDF [23]
  inhibition: Active
NHDF [13]
  inhibition: Active
NHDF [24]
  inhibition: Active
HepG2
  IC50: > 100000 nM
Bacillus cereus [10]
  inhibition in vivo at 100 µM: 50%
NHDF [27]
  inhibition: Active

## O=P(O)(O)c1nc2ccc(F)cc2nc1P(=O)(O)O
[15]
  inhibition: < 5%
